Experimental data reported in patent US10070645B2, “N-cycloalkyl-N-{[2-(1-substitutedcycloalkyl)phenyl]methylene}-(thio)carboxamide derivatives” (BAYER CROPSCIENCE AKTIENGESELLSCHAFT, priority 2013, dated 2018).
Where “and” joins values, the source holds several entries; their conditions need not be identical. Identical values can stand only once. One block for each compound: values may come before it.

Legend:
[1] = tested on: Phakopsora pachyrhizi; test: In vivo preventive test on Phakopsora pachyrhizi (soybean rust); conditions: for protection: dose of 10 ppm of active ingredient
Procedure: In Vivo Preventive Test on Phakopsora pachyrhizi (Soybean Rust)
Solvent: 24.5 parts by weight of acetone • 24.5 parts by weight of N,N-dimethylacetamide
Emulsifier: 1 part by weight of alkylaryl polyglycol ether
To produce a suitable preparation of active compound, 1 part by weight of active compound is mixed with the stated amounts of solvent and emulsifier, and the concentrate is diluted with water to the desired concentration.
To test for preventive activity, young plants are sprayed with the preparation of active compound at the stated rate of application. After the spray coating has dried on, the plants are inoculated with an aqueous spore suspension of the causal agent of soybean rust (Phakopsora pachyrhizi) and stay for 24 h without light in an incubation cabinet at approximately 24° C. and a relative atmospheric humidity of 95%.
The plants remain in the incubation cabinet at approximately 24° C. and a relative atmospheric humidity of approximately 80% and a day/night interval of 12 h.
The test is evaluated 7 days after the inoculation. 0% means an efficacy which corresponds to that of the untreated control, while an efficacy of 100% means that no disease is observed.

[2] = tested on: Uromyces appendiculatus; test: In vivo preventive test on Uromyces appendiculatus (bean rust); conditions: for protection: dose of 100 and 10 ppm of active ingredient
Procedure: In Vivo Preventive Test on Uromyces appendiculatus (Bean Rust)
Solvent: 5% by volume of Dimethyl sulfoxide • 10% by volume of Acetone
Emulsifier: 1 μL of Tween® 80 per mg of active ingredient
The active ingredients are made soluble and homogenized in a mixture of Dimethyl sulfoxide/Acetone/Tween® 80 and then diluted in water to the desired concentration.
The young plants of bean are treated by spraying the active ingredient prepared as described above. Control plants are treated only with an aqueous solution of Acetone/Dimethyl sulfoxide/Tween® 80.
After 24 hours, the plants are contaminated by spraying the leaves with an aqueous suspension of Uromyces appendiculatus spores. The contaminated bean plants are incubated for 24 hours at 20° C. and at 100% relative humidity and then for 10 days at 20° C. and at 70-80% relative humidity.
The test is evaluated 11 days after the inoculation. 0% means an efficacy which corresponds to that of the control plants while an efficacy of 100% means that no disease is observed.

[3] = log P by HPLC on a reversed-phase column (C 18), EEC Directive 79/831 Annex V.A8; assay type: physicochemical; conditions: for chromatographic logP: reversed-phase HPLC column (C 18)
In short: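 Reversed-phase C18 HPLC at 40° C, 0.1% aqueous formic acid/acetonitrile gradient from 10% to 90% acetonitrile. log P derived from retention times by linear interpolation between unbranched alkan-2-ones (3–16 carbons) of known log P.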

[4] = HPLC, reversed-phase column (C 18), 40° C., 0.1% aqueous formic acid and acetonitrile, linear gradient 10% to 90% acetonitrile
[5] = Table 3 (amines of formula II), HPLC C 18, 40° C., 0.1% aqueous formic acid and acetonitrile
[6] = Table 4 (aldehydes of formula IV), HPLC C 18, 40° C., 0.1% aqueous formic acid and acetonitrile

SMILES: Cc1ccc(C(F)(F)F)c(CN(C(=O)c2c(C(F)F)nn(C)c2F)C2CC2)c1 [12 from WO-2010/130767, N-cyclopropyl-3-(difluoromethyl)-5-fluoro-1-methyl-N-[5-methyl-2-(trifluoromethyl)benzyl]-1H-pyrazole-4-carboxamide, reference compound]
Efficacy ([1]; Table C1, dose 10 ppm): 0% | protection [1]: no protection

SMILES: Cn1nc(C(F)F)c(C(=O)N(Cc2cc(Cl)ccc2C2CC2)C2CC2)c1F [41 from WO-2010/130767, N-(5-chloro-2-cyclopropylbenzyl)-N-cyclopropyl-3-(difluoromethyl)-5-fluoro-1-methyl-1H-pyrazole-4-carboxamide, reference compound]
Efficacy ([1]; Table C2, dose 10 ppm): 0% | protection [1]: no protection

SMILES: Cn1nc(C(F)F)c(C(=O)N(Cc2c(C3CC3)ccc(F)c2F)C2CC2)c1F [54 from WO-2010/130767, N-cyclopropyl-N-(6-cyclopropyl-2,3-difluorobenzyl)-3-(difluoromethyl)-5-fluoro-1-methyl-1H-pyrazole-4-carboxamide, reference compound]
Efficacy ([2]; Table B1, dose 10 ppm): 29% | Efficacy ([2]; Table B1, dose 100 ppm): 100% | protection [2]: total to poor (less than 30%) protection

SMILES: Cn1nc(C(F)F)c(C(=O)N(Cc2cc(F)ccc2C2CC2)C2CC2)c1F [123 from WO-2010/130767, N-cyclopropyl-N-(2-cyclopropyl-5-fluorobenzyl)-3-(difluoromethyl)-5-fluoro-1-methyl-1H-pyrazole-4-carboxamide, reference compound]
Efficacy ([1]; Table C3, dose 10 ppm): 0% | protection [1]: no protection

SMILES: Cn1nc(C(F)F)c(C(=O)N(Cc2cc(F)ccc2C2(C)CC2)C2CC2)c1F [I.066]
logP [3, 4]: 3.89 | Efficacy ([2]; Table B1, dose 10 ppm): 100% | Efficacy ([2]; Table B1, dose 100 ppm): 100% | protection [2]: total protection | Efficacy ([1]; Table C3, dose 10 ppm): 89%

SMILES: Cc1ccc(C2(C)CC2)c(CN(C(=O)c2c(C(F)F)nn(C)c2F)C2CC2)c1 [I.071]
logP [3, 4]: 4.19 | Efficacy ([1]; Table C1, dose 10 ppm): 99% | protection [1]: at least 90%

SMILES: CCC1(c2cc(C)c(F)cc2CN(C(=O)c2c(C(F)F)nn(C)c2F)C2CC2)CC1 [I.106]
logP [3, 4]: 4.67 | Efficacy ([1]; Table C3, dose 10 ppm): 100% and 98%

SMILES: CCC1(c2ccc(Cl)cc2CN(C(=O)c2c(C(F)F)nn(C)c2F)C2CC2)CC1 [I.110]
logP [3, 4]: 4.59 | Efficacy ([1]; Table C2, dose 10 ppm): 98% | protection [1]: at least 90%

SMILES: Cn1nc(C(F)F)c(C(=O)N(Cc2cc(F)ccc2C2(C(F)F)CC2)C2CC2)c1F [I.151, N-cyclopropyl-3-(difluoromethyl)-N-{2-[1-(difluoromethyl)-cyclopropyl]-5-fluorobenzyl}-5-fluoro-1-methyl-1H-pyrazole-4-carboxamide]
chromatographic logP ([3]; preparation examples): 3.39 | Efficacy ([2]; Table B1, dose 10 ppm): 100% | Efficacy ([2]; Table B1, dose 100 ppm): 100% | protection [2]: total protection

SMILES: FC(F)C1(c2ccccc2CNC2CC2)CC1 [II.36, N-{2-[1-(difluoromethyl)cyclopropyl]benzyl}cyclopropanamine]
chromatographic logP [3, 5]: 0.92

SMILES: FC(F)C1(c2ccc(Br)cc2CNC2CC2)CC1 [II.37, N-{5-bromo-2-[1-(difluoromethyl)cyclopropyl]benzyl}cyclopropanamine]
chromatographic logP [3, 5]: 1.3

SMILES: FC(F)C1(c2ccc(Cl)cc2CNC2CC2)CC1 [II.38, N-{5-chloro-2-[1-(difluoromethyl)cyclopropyl]benzyl}cyclopropanamine]
chromatographic logP [3, 5]: 1.16

SMILES: Fc1ccc(C2(C(F)F)CC2)c(CNC2CC2)c1 [II.39, N-{2-[1-(difluoromethyl)cyclopropyl]-5-fluorobenzyl}cyclopropanamine]
logP [3, 5]: 1.08 | chromatographic logP ([3]; preparation examples): 1.08

SMILES: Cc1ccc(C2(C(F)F)CC2)c(CNC2CC2)c1 [II.40, N-{2-[1-(difluoromethyl)cyclopropyl]-5-methylbenzyl}cyclopropanamine]
chromatographic logP [3, 5]: 1.09

SMILES: FC(F)C1(c2cccc(Br)c2CNC2CC2)CC1 [II.41, N-{2-bromo-6-[1-(difluoromethyl)cyclopropyl]benzyl}cyclopropanamine]
chromatographic logP [3, 5]: 1.1

SMILES: Cc1ccc(C2(CC(C)C)CC2)c(CNC2CC2)c1 [II.43, N-[2-(1-isobutylcyclopropyl)-5-methylbenzyl]cyclopropanamine]
chromatographic logP [3, 5]: 2.15

The next lines start with the values.

chromatographic logP [3, 5]: 1.47
SMILES: FC(F)(F)C1(c2ccc(Cl)cc2CNC2CC2)CC1 [II.44, N-{5-chloro-2-[1-(trifluoromethyl)cyclopropyl]benzyl}cyclopropanamine]

chromatographic logP [3, 5]: 1.25
SMILES: FC(F)(F)C1(c2ccccc2CNC2CC2)CC1 [II.45, N-{2-[1-(trifluoromethyl)cyclopropyl]benzyl}cyclopropanamine]

chromatographic logP [3, 5]: 1.32
SMILES: Fc1ccc(C2(C(F)(F)F)CC2)c(CNC2CC2)c1 [II.46, N-{5-fluoro-2-[1-(trifluoromethyl)cyclopropyl]benzyl}cyclopropanamine]

chromatographic logP [3, 6]: 3.02
SMILES: CC1(c2ccccc2C=O)CC1 [IV.01, 2-(1-methylcyclopropyl)benzaldehyde]

chromatographic logP [3, 6]: 3.15
SMILES: CC1(c2cc(F)ccc2C=O)CC1 [IV.03, 4-fluoro-2-(1-methylcyclopropyl)benzaldehyde]

chromatographic logP [3, 6]: 3.44
SMILES: Cc1ccc(C=O)c(C2(C)CC2)c1 [IV.04, 4-methyl-2-(1-methylcyclopropyl)benzaldehyde]

chromatographic logP [3, 6]: 2.92
SMILES: COc1ccc(C=O)c(C2(C)CC2)c1 [IV.05, 4-methoxy-2-(1-methylcyclopropyl)benzaldehyde]

chromatographic logP [3, 6]: 3.44
SMILES: CC1(c2cc(F)c(F)cc2C=O)CC1 [IV.06, 4,5-difluoro-2-(1-methylcyclopropyl)benzaldehyde]

chromatographic logP [3, 6]: 3.85
SMILES: Cc1cc(C=O)c(C2(C)CC2)cc1C [IV.07, 4,5-dimethyl-2-(1-methylcyclopropyl)benzaldehyde]

chromatographic logP [3, 6]: 2.56
SMILES: COc1cc(C=O)c(C2(C)CC2)cc1OC [IV.08, 4,5-dimethoxy-2-(1-methylcyclopropyl)benzaldehyde]

chromatographic logP [3, 6]: 3.76
SMILES: CC1(c2ccc(Cl)cc2C=O)CC1 [IV.10, 5-chloro-2-(1-methylcyclopropyl)benzaldehyde]

chromatographic logP [3, 6]: 3.22
SMILES: CC1(c2ccc(F)cc2C=O)CC1 [IV.11, 5-fluoro-2-(1-methylcyclopropyl)benzaldehyde]

chromatographic logP [3, 6]: 3.55
SMILES: Cc1ccc(C2(C)CC2)c(C=O)c1 [IV.12, 5-methyl-2-(1-methylcyclopropyl)benzaldehyde]

chromatographic logP [3, 6]: 2.35
SMILES: N#CC1(c2ccc(Cl)cc2C=O)CC1 [IV.15, 1-(4-chloro-2-formylphenyl)cyclopropanecarbonitrile]

chromatographic logP [3, 6]: 4.29
SMILES: CCC1(c2cc(C(F)(F)F)ccc2C=O)CC1 [IV.17, 2-(1-ethylcyclopropyl)-4-(trifluoromethyl)benzaldehyde]

chromatographic logP [3, 6]: 4.29
SMILES: CCC1(c2ccc(C)cc2C=O)CC1 [IV.18, 2-(1-ethylcyclopropyl)-5-methylbenzaldehyde]

chromatographic logP [3, 6]: 4.69
SMILES: CCCC1(c2cc(Cl)ccc2C=O)CC1 [IV.19, 4-chloro-2-(1-propylcyclopropyl)benzaldehyde]

chromatographic logP [3, 6]: 3.04
SMILES: O=Cc1cc(Cl)ccc1C1(C(F)F)CC1 [IV.20, 5-chloro-2-[1-(difluoromethyl)cyclopropyl]benzaldehyde]

chromatographic logP [3, 6]: 3.01
SMILES: Cc1ccc(C2(C(F)F)CC2)c(C=O)c1 [IV.21, 2-[1-(difluoromethyl)cyclopropyl]-5-methylbenzaldehyde]

chromatographic logP [3, 6]: 1.91
SMILES: O=Cc1cc(Cl)ccc1C1(C(=O)O)CC1 [IV.24, 1-(4-chloro-2-formylphenyl)cyclopropanecarboxylic acid]

chromatographic logP [3, 6]: 2.68
SMILES: COC(=O)C1(c2ccc(Cl)cc2C=O)CC1 [IV.25, methyl 1-(4-chloro-2-formylphenyl)cyclopropanecarboxylate]

chromatographic logP ([3]; Table 5 (formula V), HPLC C 18, 40° C., 0.1% aqueous formic acid and acetonitrile): 4.86
SMILES: CC1(c2c(Cl)cccc2CBr)CC1 [V.01, 1-(bromomethyl)-3-chloro-2-(1-methylcyclopropyl)benzene]
